From ChEMBL document CHEMBL5032522, “N-2-(phenylamino) benzamide derivatives as novel anti-glioblastoma agents: Synthesis and biological evaluation” (Eur J Med Chem, 2021)
Activity calls are given as the source filed them. The rule behind the calls is not given here.

Legend:
[1] = Toxicity in Sprague-Dawley rat inoculated with C6 cells assessed as reduction in body weight at 100 mg/kg, ip bid administered for 14 days; format: organism-based; conditions: in vivo, 336 h, time 14 day
U-251 [2] = test: Antiproliferative activity against human U-251 cells assessed as inhibition of cell growth measured up to 72 hrs by CCK-8 assay; format: functional, cell-based; conditions: time hrs <=72
U-251 [3] = test: Induction of morphological changes in human U-251 cells assessed as membrane blebbing at 3.3 uM incubated for 72 hrs by Giemsa staining based light microscopic method; format: functional, cell-based
U-87 MG [4] = test: Inhibition of cell invasion in human U-87 MG cells incubated for 24 hrs by crystal violet staining based light microscopic analysis; format: functional; conditions: U-87MG ATCC
[5] = Drug concentration in Sprague-Dawley rat plasma at 100 mg/kg, ip measured 6 hrs post administration by LC-MS analysis; format: ADME, organism-based
C6 [6] = test: Antitumor activity against rat C6 cells inoculated orthotopic Sprague-Dawley rat model assessed as reduction in tumor weight at 100 mg/kg, ip bid administered for 14 days by MRI scanner; format: functional, organism-based; conditions: time 14.0 day
U-251 [7] = test: Antiproliferative activity against human U-251 cells assessed as inhibition of cell growth measured after 72 hrs by CCK-8 assay; format: functional, cell-based; conditions: U-251, 72 h
[8] = biological target: T1, DNA topoisomerase 1 (Homo sapiens) (UniProt P11387); test: Inhibition of human topoisomerase I using DNA pBR322 as substrate assessed as DNA intercalation at 100 uM incubated for 30 mins by ethidium bromide staining based agarose gel electrophoresis method
T1 sequence (whole entry): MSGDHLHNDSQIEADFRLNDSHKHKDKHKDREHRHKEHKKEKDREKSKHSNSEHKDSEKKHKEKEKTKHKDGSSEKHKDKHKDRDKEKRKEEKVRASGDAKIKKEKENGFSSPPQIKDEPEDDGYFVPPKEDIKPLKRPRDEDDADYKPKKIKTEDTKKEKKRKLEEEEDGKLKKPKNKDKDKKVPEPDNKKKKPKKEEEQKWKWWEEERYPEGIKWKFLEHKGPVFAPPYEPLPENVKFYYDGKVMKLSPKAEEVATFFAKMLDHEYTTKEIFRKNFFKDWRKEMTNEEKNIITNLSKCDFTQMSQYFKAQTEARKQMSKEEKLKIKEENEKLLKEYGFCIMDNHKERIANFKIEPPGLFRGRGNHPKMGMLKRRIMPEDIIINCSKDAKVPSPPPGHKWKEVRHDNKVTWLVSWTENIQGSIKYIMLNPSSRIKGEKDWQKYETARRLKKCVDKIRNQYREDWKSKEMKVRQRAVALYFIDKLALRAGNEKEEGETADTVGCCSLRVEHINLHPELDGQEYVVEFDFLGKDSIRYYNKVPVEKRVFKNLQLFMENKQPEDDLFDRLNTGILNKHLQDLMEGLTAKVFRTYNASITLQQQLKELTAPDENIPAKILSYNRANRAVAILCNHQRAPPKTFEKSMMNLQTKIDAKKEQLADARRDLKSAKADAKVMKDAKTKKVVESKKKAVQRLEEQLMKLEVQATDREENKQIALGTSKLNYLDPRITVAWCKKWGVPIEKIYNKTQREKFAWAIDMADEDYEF

U-251 [9] = test: Inhibition of cell invasion in human U-251 cells incubated for 24 hrs by crystal violet staining based light microscopic analysis; format: functional
[10] = biological target: T2, Prostaglandin G/H synthase 2 (Homo sapiens, UniProt P35354); test: Inhibition of human recombinant COX-2 using arachidonic acid as substrate preincubated 10 mins followed by substrate addition and measured after 2 mins by ELISA
T2 sequence (P35354 whole entry): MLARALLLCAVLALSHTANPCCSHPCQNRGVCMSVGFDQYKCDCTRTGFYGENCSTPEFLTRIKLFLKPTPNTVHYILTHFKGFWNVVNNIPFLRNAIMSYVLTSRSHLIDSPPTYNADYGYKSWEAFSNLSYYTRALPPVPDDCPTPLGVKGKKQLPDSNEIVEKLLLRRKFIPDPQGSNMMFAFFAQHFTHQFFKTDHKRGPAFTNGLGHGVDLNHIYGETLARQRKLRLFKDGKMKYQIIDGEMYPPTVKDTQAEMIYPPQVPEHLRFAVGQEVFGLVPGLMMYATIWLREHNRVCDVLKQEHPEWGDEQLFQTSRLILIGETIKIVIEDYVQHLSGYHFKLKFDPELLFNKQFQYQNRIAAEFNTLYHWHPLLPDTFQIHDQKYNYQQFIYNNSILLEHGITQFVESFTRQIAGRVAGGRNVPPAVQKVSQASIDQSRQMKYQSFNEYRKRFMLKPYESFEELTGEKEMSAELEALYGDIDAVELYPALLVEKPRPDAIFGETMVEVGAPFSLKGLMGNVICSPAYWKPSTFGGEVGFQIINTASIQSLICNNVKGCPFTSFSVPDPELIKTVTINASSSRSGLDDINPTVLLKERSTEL

[11] = Acute toxicity in Kunming mouse assessed as death at 750 mg/kg, ip administered as single dose observed every day for 14 days; format: organism-based; conditions: in vivo, 336 h, time 14 day
[12] = Acute toxicity in ip dosed Kunming mouse assessed as lethal dose measured after 14 days; format: organism-based; conditions: in vivo, time 14 day
U-251 [13] = test: Antiproliferative activity against human U-251 cells assessed as cell survival at <= 1.1 uM measured after 24 hrs by CCK-8 assay; format: functional; conditions: dose microM <=1.1
[14] = Cmax in Sprague-Dawley rat at 100 mg/kg, ip measured up to 24 hrs by LC-MS analysis; format: ADME, organism-based; parameters: route intraperitoneal, dose 100 mg/kg, time <=24; conditions: in vivo
U-87 MG [15] = test: Inhibition of colony formation in human U-87 MG cells measured after 8 days by crystal violet staining based assay; format: functional, cell-based; conditions: U-87MG ATCC, time 8.0 day
C6 [16] = test: Antitumor activity against rat C6 cells inoculated orthotopic Sprague-Dawley rat model assessed as reduction in tumor volume at 100 mg/kg, ip bid administered for 14 days; format: functional, organism-based; conditions: time 14.0 day
U-251 [17] = test: Induction of morphological changes in human U-251 cells assessed as appearance of shrunken cell bodies at 3.3 uM incubated for 72 hrs by Giemsa staining based light microscopic method; format: functional
[18] = AUC ( 0 to infinity) in Sprague-Dawley rat at 100 mg/kg, ip measured up to 24 hrs by LC-MS analysis; format: ADME, organism-based; parameters: route intraperitoneal, dose 100 mg/kg, time <=24; conditions: in vivo
U-87 MG [19] = test: Inhibition of cell migration in human U-87 MG cells incubated for 24 hrs by crystal violet staining based light microscopic analysis; format: functional; conditions: U-87MG ATCC
[20] = Ratio of drug concentration in brain to plasma in Sprague-Dawley rat at 100 mg/kg, ip measured 6 hrs post administration by LC-MS/MS analysis; format: ADME, organism-based; conditions: read-out: BPR
U-251 [21] = test: Induction of cell cycle arrest in human U-251 cells assessed as reduction in G0/G1 phase accumulation at 10 uM incubated for 72 hrs by propidium iodide/RNase A staining based flow cytometry (reference value: 79.12%); format: functional; parameters: scale not given: the % may be the effect or the level left
U-87 MG [22] = test: Induction of morphological changes in human U-87 MG cells assessed as membrane blebbing at 3.3 uM incubated for 72 hrs by Giemsa staining based light microscopic method; format: functional, cell-based; conditions: U-87MG ATCC
U-251 [23] = test: Induction of cell cycle arrest in human U-251 cells assessed as accumulation of cells at G2/M phase incubated for 72 hrs by propidium iodide/RNase A staining based flow cytometry analysis; format: functional

| SMILES | Activity [1] | Activity (U-251 [2]) | Activity (U-251 [3]) | inhibition (U-87 MG [4]) | concentration at 6 h [5] [ng/mL] | Activity (C6 [6]) | IC50 (U-251 [7]) [µM] | inhibition [8] | inhibition (U-251 [9]) | IC50 [10] [µM] | Activity [11] | LD50 at 336 h [12] [mg/kg] | Survival (U-251 [13]) [%] | Cmax [14] [ng/mL] | inhibition (U-87 MG [15]) | Activity (C6 [16]) | Activity (U-251 [17]) | AUC(0-inf) [18] [ng·h/mL] | inhibition (U-87 MG [19]) | Kp at 6 h [20] | other results |
| --- | --- | --- | --- | --- | --- | --- | --- | --- | --- | --- | --- | --- | --- | --- | --- | --- | --- | --- | --- | --- | --- |
| Cc1c(Cl)cccc1Nc1ccccc1C(=O)Nc1ccc2c(c1)OCO2 | Non-Toxic | Dose-Dependent Effect | Active | Dose-Dependent Effect | 4990 | Active | 9.91 | Active | Dose-Dependent Effect | 45 | Non-Toxic | 750 | >80 | 8870 | Dose-Dependent Effect | Active | Active | 49200 | Dose-Dependent Effect | 0.29 | Activity (U-251 [21]): 25.36%; Activity (U-87 MG [22]): Active; Activity (U-251 [23]): Dose-Dependent Effect |
| COc1ccc(NC(=O)c2ccccc2Nc2cccc(Cl)c2C)cc1 | Non-Toxic | Dose-Dependent Effect | Active | Dose-Dependent Effect | 5790 | Active | 5.36 | Active | Dose-Dependent Effect | 33.6 | Non-Toxic | 300 | >80 | 8370 | Dose-Dependent Effect | Active | Active | 86200 | Dose-Dependent Effect | 0.65 | Activity (U-251 [21]): 26.28%; Activity (U-87 MG [22]): Active; Activity (U-251 [23]): Dose-Dependent Effect |
